Reference: ChEMBL document CHEMBL1201862, “PubChem BioAssay data set” (2004)
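Growth conditions: 96-well plates. Treatment: test compound, 48 hours, 5 concentrations. Analysis: linear interpolation between bracketing concentrations; unreached endpoints set to highest concentration. Abbreviation: GI50, concentration required for 50% inhibition of growth.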 Active and inactive are the calls of the source. No stated cut-off is given here; in the data, active = GI50 up to about 1.1 µM and inactive = higher.

Experiments:
Experiment in all cases: growth of human tumour cells (NCI), 48 h
CAKI-1 = tested on: CAKI-1
SN12C = tested on: SN12C
SK-MEL-2 = tested on: SK-MEL-2
RPMI-8226 = tested on: RPMI-8226
SF-268 = tested on: SF-268
TK-10 = tested on: TK-10
UO-31 = tested on: UO-31
IGROV-1 = tested on: IGROV-1
HCC 2998 = tested on: HCC 2998
OVCAR-5 = tested on: OVCAR-5
KM12 = tested on: KM12
NCI-H23 = tested on: NCI-H23
NCI-H226 = tested on: NCI-H226
HCT-116 = tested on: HCT-116
A549 = tested on: A549
Malme-3M = tested on: Malme-3M
A498 = tested on: A498
RXF 393 = tested on: RXF 393

Measured: GI50

O=c1ccc2ccccc2c2ccccc12
inactive: CAKI-1 2.81 µM | SN12C 2.46 µM | SK-MEL-2 3.43 µM | RPMI-8226 2.23 µM | SF-268 2.79 µM | TK-10 14.5 µM | UO-31 3.81 µM | IGROV-1 6.12 µM | HCC 2998 9.64 µM | OVCAR-5 2.82 µM | KM12 2.58 µM | NCI-H23 2.83 µM | NCI-H226 4.27 µM | HCT-116 3.7 µM | A549 13.8 µM | Malme-3M 10.4 µM | A498 22.7 µM

Nc1nc(N)c(-c2ccccc2)c(C(=O)Nc2ccc(Cl)c(Cl)c2)n1
inactive: CAKI-1 > 100 µM | SN12C > 100 µM | SK-MEL-2 > 100 µM | RPMI-8226 46.8 µM | SF-268 > 100 µM | TK-10 > 100 µM | UO-31 > 100 µM | IGROV-1 > 100 µM | HCC 2998 > 100 µM | OVCAR-5 > 100 µM | KM12 > 100 µM | NCI-H23 > 100 µM | NCI-H226 > 100 µM | HCT-116 > 100 µM | A549 > 100 µM | Malme-3M > 100 µM | A498 > 100 µM | RXF 393 > 100 µM

O=C1C(c2ccccc2)=C(c2ccccc2)C(c2ccc(-c3ccc(C4=C(c5ccccc5)C(=O)C(c5ccccc5)=C4c4ccccc4)cc3)cc2)=C1c1ccccc1
inactive: CAKI-1 > 100 µM | SN12C > 100 µM | SK-MEL-2 > 100 µM | RPMI-8226 46.9 µM | SF-268 > 100 µM | TK-10 > 100 µM | UO-31 > 100 µM | IGROV-1 > 100 µM | OVCAR-5 > 100 µM | KM12 > 100 µM | NCI-H23 > 100 µM | NCI-H226 > 100 µM | HCT-116 > 100 µM | A549 > 100 µM | Malme-3M > 100 µM | A498 > 100 µM | RXF 393 > 100 µM

Cc1ccc2c(c1)CN1c3ccc(C)cc3CN2C1c1ccccc1O
inactive: CAKI-1 > 100 µM | SN12C 29.9 µM | SK-MEL-2 48.9 µM | RPMI-8226 19.5 µM | SF-268 81.7 µM | TK-10 26.2 µM | UO-31 24.9 µM | IGROV-1 79.4 µM | OVCAR-5 18.6 µM | KM12 43.3 µM | NCI-H23 27.3 µM | NCI-H226 49.5 µM | HCT-116 18.7 µM | A549 > 100 µM | Malme-3M > 100 µM | RXF 393 7.18 µM

O=C1CC2CC=C[C@H]3c4cc5c(cc4C(=O)N1C23)OCO5 (stereo partly drawn)
inactive: SN12C > 50 µM | RPMI-8226 > 50 µM | SF-268 > 50 µM | TK-10 > 50 µM | UO-31 > 50 µM | IGROV-1 > 50 µM | HCC 2998 > 50 µM | KM12 > 50 µM | NCI-H23 > 50 µM | NCI-H226 > 50 µM | HCT-116 > 50 µM | A549 > 50 µM | Malme-3M > 50 µM | RXF 393 > 50 µM

O=C(Nc1ccccc1-c1n[nH]c(S)nc1=O)C(F)(F)F
inactive: CAKI-1 > 100 µM | SN12C > 100 µM | SK-MEL-2 > 100 µM | SF-268 > 100 µM | TK-10 > 100 µM | UO-31 > 100 µM | IGROV-1 > 100 µM | HCC 2998 > 100 µM | OVCAR-5 > 100 µM | KM12 > 100 µM | NCI-H23 > 100 µM | NCI-H226 > 100 µM | HCT-116 > 100 µM | A549 > 100 µM | Malme-3M > 100 µM | RXF 393 > 100 µM

Cc1ccc(NC(=O)SCCC(=O)O)cc1
inactive: CAKI-1 > 100 µM | SN12C > 100 µM | SK-MEL-2 > 100 µM | RPMI-8226 > 100 µM | SF-268 17.2 µM | TK-10 > 100 µM | UO-31 > 100 µM | IGROV-1 47.4 µM | HCC 2998 > 100 µM | OVCAR-5 > 100 µM | KM12 > 100 µM | NCI-H23 > 100 µM | NCI-H226 > 100 µM | HCT-116 > 100 µM | A549 > 100 µM | A498 > 100 µM | RXF 393 > 100 µM

COC[C@@H]1[C@H]2OC(C)(C)O[C@H]2C(=O)N1C(=O)c1ccc(OC)cc1
inactive: CAKI-1 > 100 µM | SN12C > 100 µM | SK-MEL-2 > 100 µM | RPMI-8226 > 100 µM | SF-268 > 100 µM | TK-10 > 100 µM | UO-31 > 100 µM | IGROV-1 > 100 µM | HCC 2998 > 100 µM | OVCAR-5 > 100 µM | KM12 > 100 µM | NCI-H23 > 100 µM | NCI-H226 > 100 µM | HCT-116 > 100 µM | A549 > 100 µM | Malme-3M > 100 µM | A498 > 100 µM | RXF 393 > 100 µM

COc1cc(Br)c(CC2NCCc3cc(OC)c(OC)cc32)cc1OC (stereo not drawn)
inactive: CAKI-1 68.7 µM | SN12C 94.4 µM | SK-MEL-2 > 100 µM | RPMI-8226 18.8 µM | SF-268 > 100 µM | TK-10 83.4 µM | UO-31 25.7 µM | HCC 2998 34.9 µM | OVCAR-5 40.9 µM | KM12 73.6 µM | NCI-H23 20.9 µM | NCI-H226 32.8 µM | HCT-116 24.4 µM | A549 81.1 µM | Malme-3M 58.5 µM | A498 76 µM

COC(=O)/C(C)=C/[N+](=O)[O-]
inactive: CAKI-1 2.57 µM | SN12C 20.7 µM | SK-MEL-2 19.7 µM | RPMI-8226 2.77 µM | SF-268 23.1 µM | TK-10 16.3 µM | UO-31 18.9 µM | IGROV-1 20.9 µM | HCC 2998 17.3 µM | OVCAR-5 19.7 µM | KM12 18.5 µM | NCI-H23 19.8 µM | HCT-116 8.04 µM | A549 21.7 µM | Malme-3M 17.3 µM | A498 23.3 µM | RXF 393 21.2 µM

O=c1c2ccccc2nc(-c2cccc(Cl)c2)n1NC1OC(CO)C(O)C(O)C1O (stereo not drawn)
inactive: CAKI-1 > 100 µM | SN12C > 100 µM | SK-MEL-2 > 100 µM | RPMI-8226 > 100 µM | SF-268 > 100 µM | TK-10 > 100 µM | UO-31 > 100 µM | IGROV-1 > 100 µM | HCC 2998 > 100 µM | OVCAR-5 > 100 µM | KM12 > 100 µM | NCI-H23 > 100 µM | NCI-H226 > 100 µM | HCT-116 > 100 µM | A549 > 100 µM | Malme-3M > 100 µM | A498 > 100 µM

O=c1[nH]c(=O)n(C2CC(O)C(CO)O2)cc1C#Cc1ccc(C(F)(F)F)cc1 (stereo not drawn)
inactive: SN12C > 100 µM | SK-MEL-2 > 100 µM | RPMI-8226 > 100 µM | SF-268 > 100 µM | TK-10 > 100 µM | UO-31 > 100 µM | IGROV-1 > 100 µM | HCC 2998 > 100 µM | OVCAR-5 > 100 µM | KM12 > 100 µM | NCI-H23 > 100 µM | NCI-H226 > 100 µM | HCT-116 > 100 µM | A549 > 100 µM | Malme-3M > 100 µM | RXF 393 > 100 µM

O=C(Nc1ccn(CCOC(=O)c2ccccc2)c(=O)n1)c1ccccc1
inactive: CAKI-1 > 100 µM | SN12C > 100 µM | SK-MEL-2 > 100 µM | RPMI-8226 > 100 µM | SF-268 > 100 µM | TK-10 > 100 µM | UO-31 > 100 µM | IGROV-1 > 100 µM | OVCAR-5 > 100 µM | KM12 > 100 µM | NCI-H226 > 100 µM | HCT-116 > 100 µM | A549 > 100 µM | Malme-3M > 100 µM | A498 > 100 µM | RXF 393 > 100 µM

Cc1cccc(NC(=O)C(=O)Cc2nc3ccccc3nc2O)c1C
inactive: CAKI-1 > 100 µM | SN12C > 100 µM | SF-268 > 100 µM | TK-10 > 100 µM | UO-31 > 100 µM | IGROV-1 > 100 µM | HCC 2998 > 100 µM | OVCAR-5 > 100 µM | KM12 > 100 µM | NCI-H23 > 100 µM | NCI-H226 > 100 µM | HCT-116 > 100 µM | A549 > 100 µM | Malme-3M > 100 µM | A498 > 100 µM | RXF 393 > 100 µM

C[C@]12CCC(=O)C=C1CC[C@@H]1C2CC[C@]2(C)Nc3[nH]ncc3CC12 (stereo partly drawn)
inactive: CAKI-1 > 100 µM | SK-MEL-2 > 100 µM | RPMI-8226 > 100 µM | TK-10 > 100 µM | UO-31 > 100 µM | IGROV-1 > 100 µM | HCC 2998 > 100 µM | OVCAR-5 > 100 µM | KM12 > 100 µM | NCI-H23 > 100 µM | NCI-H226 60.3 µM | HCT-116 > 100 µM | A549 > 100 µM | Malme-3M > 100 µM | A498 > 100 µM | RXF 393 > 100 µM

O=C(N/N=C/c1cc(Cl)cc(Cl)c1O)c1ccncc1
inactive: SN12C > 100 µM | RPMI-8226 > 100 µM | SF-268 > 100 µM | TK-10 > 100 µM | UO-31 71.1 µM | IGROV-1 63.5 µM | HCC 2998 > 100 µM | OVCAR-5 39.1 µM | KM12 > 100 µM | NCI-H23 78.9 µM | NCI-H226 > 100 µM | HCT-116 > 100 µM | A549 > 100 µM | Malme-3M > 100 µM | A498 > 100 µM | RXF 393 > 100 µM
